Test system: Py-3Y1-S2, TE-13, VERO and HepG2 cells
Assay: Lactate concentration after 2 to 3 days culture, lactate metabolism, mean over four cell types (Example 9)
Type: cell-based, rat, human, African green monkey
Conditions: drug 0.5 mg/ml, 2 to 3 days (48 to 72 hours) culture, mean of four experiments
Protocol: After the addition of the drug, the culture solution was diluted so that the weight ratio of the culture solution to distilled water was 1:19, and the lactate concentration of the diluted culture solution was measured. The lactate concentration was measured using a lactate assay kit (product name: Lactate Assay Kit-WST, product of Dojindo Laboratories).
First, samples of 2-amino-1-cyclohexylethanol (2-amino-1-cyclohexyl EOH) and 2-amino-1-phenylethanol (2-amino-1-phenyl EOH) were prepared in the same manner as in Example 1. Four types of cells were used as in Example 8, and each of the cells was cultured under the same conditions as in Example 1. […] Thereafter, the culture time was lengthened to 2 to 3 days (48 to 72 hours) compared to Example 8. As a control 1, the culture was performed in the same manner except that distilled water to which the drug was not added was added to the culture solution instead of the sample. As a control 2, the culture was performed in the same manner as the […] except that a sample of biguanide prepared in the same manner as in Example 1 was added to the culture solution instead of the sample. Then, the lactate concentration in each sample was measured in the same manner as in Example 6. Each of the four cells was used for a total of four experiments.

Question: How did the “lactate concentration in the culture solution compared to control 1” value turn out when NCC(O)c1ccccc1 (stereo not shown) [2-amino-1-phenylethanol] was run?
Answer: equivalent to that of control 1

From US20210330606A1, “GLUCOSE CONSUMPTION ACCELERATOR AND GLYCOLYSIS ACCELERATOR” (SHINKO SANGYO Co., Ltd., priority 2018, published 2021)
